# How the values were obtained:
# Test in all cases: MTT assay panel
# Format in all cases: cell-based
# [1] = test system: Calu-3; details: Homo sapiens; Calu-3 cells, 72 hours
# Procedure: (§1) Compound 124 was further tested against a panel of selected solid and hematological cancer cell lines and selected normal cell lines in an MTT assay. Briefly, the various cell lines above were plated at different densities on day 1. […] Cell Titer AQueous One was added to each well, and the plates were read in a plate reader at OD 495.
# [2] = test system: SW-403; details: Homo sapiens; SW-403 cells, 72 hours
# Procedure: as §1
# [3] = test system: SW-480; details: Homo sapiens, SW480; SW-480 cells, 72 hours
# Procedure: as §1
# [4] = test system: SKOV3; details: Homo sapiens, SK-OV-3; SKOV3 cells, 72 hours
# Procedure: as §1
# [5] = test system: HEP3B; details: Homo sapiens; HEP3B cells, 72 hours
# Procedure: as §1
# [6] = test system: MOLT4; details: Homo sapiens, MOLT-4; MOLT4 cells, 72 hours
# Procedure: as §1
# [7] = test system: L3.6pl; details: Homo sapiens; L3.6pl cells, 72 hours
# Procedure: as §1
# [8] = test system: NCI-H1299; details: Homo sapiens; NCI-H1299 cells, 72 hours
# Procedure: as §1
# [9] = test system: SW-620; details: Homo sapiens; SW-620 cells, 72 hours
# Procedure: as §1
# [10] = test system: NCI-H508; details: Homo sapiens; NCI-H508 cells, 72 hours
# Procedure: as §1
# [11] = test system: Calu-6; details: Homo sapiens; Calu-6 cells, 72 hours
# Procedure: as §1
# [12] = test system: ANBL-6; details: Homo sapiens; ANBL-6 cells, 72 hours
# Procedure: as §1
# [13] = test system: HCC-4006; details: Homo sapiens, HCC4006; HCC-4006 cells, 72 hours
# Procedure: as §1
# [14] = test system: RKO; details: Homo sapiens; RKO cells, 72 hours
# Procedure: as §1
# [15] = test system: HEL.92.1.7; details: Homo sapiens; HEL.92.1.7 cells, 72 hours
# Procedure: as §1
# [16] = test system: U118MG; details: Homo sapiens, U-118-MG; U118MG cells, 72 hours
# Procedure: as §1
# [17] = test system: HCT116; details: Homo sapiens, HCT-116; HCT116 cells, 72 hours
# Procedure: as §1
# [18] = test system: THP1; details: Homo sapiens, THP-1; THP1 cells, 72 hours
# Procedure: as §1
# [19] = test system: SW-48; details: Homo sapiens, SW48; SW-48 cells, 72 hours
# Procedure: as §1
# [20] = test system: IMR-90; details: Homo sapiens; IMR-90 cells, 72 hours
# Procedure: as §1
# [21] = test system: NCI-H28; details: Homo sapiens; NCI-H28 cells, 72 hours
# Procedure: as §1
# [22] = test system: MSTO-211H; details: Homo sapiens; MSTO-211H cells, 72 hours
# Procedure: as §1
# [23] = test system: LS-180; details: Homo sapiens, LS180; LS-180 cells, 72 hours
# Procedure: as §1
# [24] = test system: NCI-H1993; details: Homo sapiens; NCI-H1993 cells, 72 hours
# Procedure: as §1
# [25] = test system: HPAF-II; details: Homo sapiens; HPAF-II cells, 72 hours
# Procedure: as §1
# [26] = test system: NCI-H820; details: NCI-H820 cells, 72 hours
# Procedure: as §1
# [27] = test system: PATU-8988S; details: PATU-8988S cells, 72 hours
# Procedure: as §1
# [28] = test system: NCI-H187; details: Homo sapiens; NCI-H187 cells, 72 hours
# Procedure: as §1
# [29] = test system: NCI-H226; details: Homo sapiens; NCI-H226 cells, 72 hours
# Procedure: as §1
# [30] = test system: MS751; details: MS751 cells, 72 hours
# Procedure: as §1
# [31] = test system: HT1080; details: Homo sapiens, HT-1080; HT1080 cells, 72 hours
# Procedure: as §1
# [32] = test system: NCI-H1650; details: Homo sapiens; NCI-H1650 cells, 72 hours
# Procedure: as §1
# [33] = test system: NCI-H358; details: Homo sapiens; NCI-H358 cells, 72 hours
# Procedure: as §1
# [34] = test system: LoVo; details: Homo sapiens; LoVo cells, 72 hours
# Procedure: as §1
# [35] = test system: MINO; details: Homo sapiens; MINO cells, 72 hours
# Procedure: as §1
# [36] = test system: LN18; details: Homo sapiens, LN-18; LN18 cells, 72 hours
# Procedure: as §1
# [37] = test system: MCF7; details: Homo sapiens; MCF7 cells, 72 hours
# Procedure: as §1
# [38] = test system: NCI-H520; details: Homo sapiens; NCI-H520 cells, 72 hours
# Procedure: as §1
# [39] = test system: HCC-2935; details: Homo sapiens, HCC2935; HCC-2935 cells, 72 hours
# Procedure: as §1
structure (smiles),measurement,setting,value
"NC(=O)/C(=C/n1cnc(-c2cc(C(F)(F)F)cc(C(F)(F)F)c2)n1)c1cncnc1 [Compound 124, (E)-3-(3-(3,5-bis(trifluoromethyl)phenyl)-1H-1,2,4-triazol-1-yl)-2-(pyrimidin-5-yl)acrylamide]",IC50,[1],1380 nM
same,IC50,[2],910 nM
same,IC50,[3],10000 nM
same,IC50,[4],> 10000 nM
same,IC50,[5],300 nM
same,IC50,[6],10 nM
same,IC50,[7],470 nM
same,IC50,[8],50 nM
same,IC50,[9],420 nM
same,IC50,[10],860 nM
same,IC50,[11],1270 nM
same,IC50,[12],220 nM
same,IC50,[13],20 nM
same,IC50,[14],450 nM
same,IC50,[15],230 nM
same,IC50,[16],370 nM
same,IC50,[17],110 nM
same,IC50,[18],3380 nM
same,IC50,[19],120 nM
same,IC50,[20],> 10000 nM
same,IC50,[21],340 nM
same,IC50,[22],70 nM
same,IC50,[23],> 10000 nM
same,IC50,[24],> 10000 nM
same,IC50,[25],> 10000 nM
same,IC50,[26],3400 nM
same,IC50,[27],10000 nM
same,IC50,[28],530 nM
same,IC50,[29],30 nM
same,IC50,[30],400 nM
same,IC50,[31],310 nM
same,IC50,[32],> 10000 nM
same,IC50,[33],420 nM
same,IC50,[34],680 nM
same,IC50,[35],20 nM
same,IC50,[36],2060 nM
same,IC50,[37],680 nM
same,IC50,[38],1300 nM
same,IC50,[39],6700 nM
